Literature values as cited in patent US10272261B2, “Methods and compositions for treating ocular glaucoma” (Massachusetts Eye and Ear Infirmary, priority 2004, dated 2019).

Test system: pigmented rabbits
Conditions: pigmented rabbits compared with albino rabbits; cited from earlier work

chloro-aluminum sulfonated phthalocyanine [CASPc]
duration of IOP reduction by ciliary body PDT: lasted a relatively shorter period than that of albino rabbits
